Assay results reported in article PMC11149917, “Translational and Therapeutic Evaluation of RAS-GTP Inhibition by RMC-6236 in RAS-Driven Cancers” (Cancer Discovery, 2024).
Where two headings read alike, the source gives them in different places.

Assays:
[1] = test system: Capan-2 (KRAS^G12V/WT, PDAC) xenograft; assay: Subcutaneous xenograft antitumor activity; assay type: in vivo, mouse; conditions: for Tumor Volume: Capan-2 Tumor Volume Data
Description: (§1) To generate subcutaneous CDX, each mouse was inoculated at the right flank with tumor cells (2 × 10^6 − 1 × 10^7) in 100 to 200 µL of media/PBS Supplemented with Matrigel. Treatments were initiated when average tumor volume reached 130 to 200 mm^3 for tumor growth evaluation and 350 to 650 mm^3 for single-dose pharmacokinetic/pharmacodynamic (PK/PD). Tumor diameter was measured in two dimensions using a digital caliper, and the tumor volume in mm^3 was calculated using the formula: Volume = ((width)^2 × length)/2. Mice in the study were weighed and tumors were measured twice weekly.
(§2) Tumor-bearing animals were randomized and assigned into groups (n = 1–10/group). The vehicle at 10 mL/kg or RMC-6236 at indicated doses was administered via oral gavage daily, and animals were treated for 28 days, or up to 90 days if PFS was being assessed. […] For single-dose PKPD study, mice were randomized and assigned into groups (n = 3/dose/time point). A single dose of RMC-6236 was administered orally at either 3, 10, or 25 mg/kg. Blood and tissues, including the tumor, brain, colon, ear skin, and muscle, were harvested at indicated time points. Whole blood was collected in K2EDTA Microtainer tubes, incubated for 5 minutes, and snap-frozen in liquid nitrogen. The tissue was either fixed in 10% formalin or snap-frozen in liquid nitrogen for further analysis.
(§3) In tumor volume plots, the average tumor volume of each group was plotted over the course after implantation (except for PDX models, where the x-axis started on the first day of treatment). Control and RMC-6236 groups were compared by two-way repeated-measures ANOVA on the last measurement day of the control group. Percentage change in body weight for each animal on a given day was determined as [(body weight on test article administration end date/body weight on test article administration start date) −1] × 100. The percentage mean tumor volume change from baseline was graphed in the waterfall plots. The mRECIST score was determined based on % mean tumor volume change, mCR is more than 80% regression, mPR is between 30% and 80% regression, mSD is between 30% growth and 30% regression, mPD is more than 30% growth. Progression is defined as tumor volume doubling from baseline and represented with Kaplan–Meier plots. Log-rank test was used to compare vehicle control with treatment groups. Cox Proportional Hazards models were used to estimate hazard ratios between vehicle control and treatment groups. Tumor relapse was defined here as models that were considered mPR or mCR at the response calling date and then rebounded from mean tumor volume regressions to either stable disease or progression when dosed long-term (more than 60 days).

[2] = test system: KP-4 (KRAS^G12D/WT, PDAC) xenograft; assay: Subcutaneous xenograft antitumor activity; assay type: in vivo, mouse; conditions: KP-4 (25 mg/kg)
Description: as §1, §2, §3

[3] = test system: NCI-H358 (KRAS^G12C/WT, NSCLC) xenograft; assay: Subcutaneous xenograft antitumor activity; assay type: in vivo, mouse; conditions: NCI-H358 (25 mg/kg)
Description: as §1, §2, §3

[4] = test system: KRAS^G12V and KRAS^G12D xenograft models (NSCLC, PDAC, colorectal cancer); assay: Mouse clinical trial (MCT), genotype subsets; assay type: in vivo
Description: as §1
The human primary cancer PDX models were generated using fresh tumor fragments obtained from the hospital with written informed consent from patients in accordance with protocols approved by the Hospital's Institutional Ethical Committee. Tumor fragments were subcutaneously serial passaged in immunodeficient mice and cryopreserved for further use. Recovered tumor fragments were implanted into the right flanks of immunodeficient mice; treatment started when the average tumor volume reached 150 to 350 mm^3.
as §2
as §3, with “Log-rank test was used to compare vehicle control with treatment groups. Cox Proportional Hazards models were used to estimate hazard ratios between vehicle control and treatment groups. Tumor relapse was defined here as models that were considered mPR or mCR at the response calling date and then rebounded from mean tumor volume regressions to either stable disease or progression when dosed long-term (more than 60 days).” left out

Mouse PK/PD modeling = conditions: mouse, whole blood, oral
Text: (§4) Akaike information criterion values were used to discriminate between model structure and fit. Individual data points (n = 3/time point) were averaged from sparsely sampled PK/PD data to create mean profiles, which were used for subsequent modeling. A graphical representation of the model and all parameter estimates and equations can be found in the Supplementary Information (Supplementary Fig. S6; Supplementary Table S8l Supplementary Method).
(§5) For PK modeling, whole blood PK data from single or repeat dose administration of 25 or 40 mg/kg RMC-6236 to NCI-H441 xenograft tumor-bearing mice were used (Supplementary Table S9). RMC-6236 blood PK was best described using a one-compartment model with first-order absorption and elimination. Because intravenous data were not included in the modeling, the model was parameterized in terms of apparent clearance (CL/F) and volume of distribution (V/F), where F is the oral bioavailability.
(§6) The mouse whole-blood PK model was expanded to include tumor PK/PD by incorporating blood–plasma partitioning, plasma protein binding, and tumor partitioning and PD parameters. PK/PD modeling was conducted using data from NCI-H441 xenograft tumor-bearing mice due to greater data availability. RMC-6236 tumor concentrations and DUSP6 mRNA expression were measured in tumor tissue after single or repeat dose administration of 25 or 40 mg/kg to NCI-H441 xenograft tumor-bearing mice (Supplementary Table S9). […] The PD response was modeled using DUSP6 biomarker data from NCI-H441 mouse xenograft studies. […] As such, an indirect response model was used to describe the suppression of DUSP6 expression, assuming zero-order production, first-order degradation, and maximal inhibition fixed at 100%.
(§7) Tumor PK and PD were added to the model by incorporating blood-plasma partitioning, plasma protein binding, and tumor partitioning and PD parameters.
(§8) The unbound plasma concentrations were used as a driving function to predict total tumor concentrations. Separate tumor partitioning rates were fit to match the observed extended half-life of RMC-6236. The tumor partitioning rates were manually adjusted to best fit repeat dose data as this was assumed to be more relevant for clinical predictions. It is important to note that the kinetic rate constant for removal of drug from the tumor incorporates a non-identifiable tumor fraction unbound variable, since only unbound drug should partition across cell membranes.

[5] = test system: DUSP6 mRNA in NCI-H441 xenograft tumors; assay: Mouse PK/PD modeling
Text: as §4, §5, §6, §7, §8

[6] = 21 KRAS^G12V models, 25 mg/kg daily
[7] = Mouse PKPD Model Parameters, apparent value, NCI-H441 #8 Single and Repeat Dose fit simultaneously
[8] = Mouse PKPD Model Parameters, Manually fit to repeat dose data
[9] = Mouse PKPD Model Parameters, NCI-H441 #8 Single and Repeat Dose fit simultaneously
[10] = NCI-H441 PKPD model, Manually Fit

For `CCn1c(-c2cc(N3CCN(C)CC3)cnc2[C@H](C)OC)c2c3cc(ccc31)-c1csc(n1)C[C@H](NC(=O)[C@H]1C[C@@H]1C)C(=O)N1CCC[C@H](N1)C(=O)OCC(C)(C)C2` [RMC-6236], which “Anti-Tumor Activity (% regression)” value ([1]; Capan-2 (10 mg/kg)) is on record?
The value was 13%.

What about the “Anti-Tumor Activity (% regression)” value ([1]; Capan-2 (25 mg/kg)) of the same compound?
Its value is 53.0%.

And the mean tumor regression ([1]; Capan-2, 10 mg/kg daily, 4 weeks)?
Its mean tumor regression is 13%.

What about the “Tumor Volume” value ([1]; 10mg/kg_Capan2, dose every 24 h, 0 h (baseline)) of the same compound?
The value was 166.375 mm^3.

And the “Tumor Volume” value ([1]; 10mg/kg_Capan2, dose every 24 h, 48 h)?
The value was 174.875 mm^3.

What about the “Tumor Volume” value ([1]; 10mg/kg_Capan2, dose every 24 h, 144 h) of the same compound?
Its value is 156.5 mm^3.

What about the “Tumor Volume” value ([1]; 10mg/kg_Capan2, dose every 24 h, 384 h) of the same compound?
The value was 177.25 mm^3.

And the “Tumor Volume” value ([1]; 10mg/kg_Capan2, dose every 24 h, 480 h)?
Its value is 157.5 mm^3.

What about the “Tumor Volume” value ([1]; 10mg/kg_Capan2, dose every 24 h, 552 h) of the same compound?
Its value is 152.125 mm^3.

What about the “Tumor Volume” value ([1]; 25mg/kg_Capan2, dose every 24 h, 0 h (baseline)) of the same compound?
The value was 166.375 mm^3.

What about the “Tumor Volume” value ([1]; 25mg/kg_Capan2, dose every 24 h, 48 h) of the same compound?
Its value is 154.875 mm^3.

What about the “Tumor Volume” value ([1]; 25mg/kg_Capan2, dose every 24 h, 144 h) of the same compound?
Its value is 132.75 mm^3.

What about the “Tumor Volume” value ([1]; 25mg/kg_Capan2, dose every 24 h, 384 h) of the same compound?
Its value is 105 mm^3.

And the “Tumor Volume” value ([1]; 25mg/kg_Capan2, dose every 24 h, 480 h)?
Its value is 90.25 mm^3.

And the “Tumor Volume” value ([1]; 25mg/kg_Capan2, dose every 24 h, 552 h)?
Its value is 86.875 mm^3.

And the “Anti-Tumor Activity (% regression)” value ([2]; d14)?
Its value is 48.2%.

And the “Anti-Tumor Activity, %TGI” value ([2]; d28)?
The value was 89.2 % TGI.

What about the “Anti-Tumor Activity (% regression)” value [3] of the same compound?
Its value is 92.97%.

And the “Cox Proportional Hazard Ratio, PFS of KRAS^G12V vs KRAS^G12D models on RMC-6236” value ([4]; 25 mg/kg daily up to 90 days, 95% interval 0.069–0.454)?
The value was 0.178.

What about the “disease control rate (DCR), mRECIST” value [4, 6] of the same compound?
Its value is 95%.

What about the “overall response rate (ORR), mRECIST” value [4, 6] of the same compound?
The value was 71%.

What about the “models with tumor relapse on long-term dosing (more than 60 days)” value ([4]; models mPR or mCR at response calling date, NSCLC, PDAC, colorectal cancer) of the same compound?
Its value is 5 of 20.

What about the CL/F (Mouse PK/PD modeling; [7]) of the same compound?
The CL/F was 48.5 mL/min/kg.

What about the CL/F (Mouse PK/PD modeling; NCI-H441 PKPD model, %CV 9.90) of the same compound?
Its CL/F is 48.5 mL/min/kg.

What about the Imax ([5]; Mouse PKPD Model Parameters, Fixed) of the same compound?
The Imax was 1 unitless.

What about the Kbt [5, 8] of the same compound?
The Kbt was 115 h⁻¹.

What about the Ktb [5, 8] of the same compound?
Its Ktb is 0.1 h⁻¹.

What about the Ka [5, 9] of the same compound?
Its Ka is 0.6483 h⁻¹.

What about the Kout [5, 9] of the same compound?
Its Kout is 2.386 h⁻¹.

And the IC50 ([5]; Mouse PKPD Model Parameters, NCI-H441 #8 Single and Repeat Dose fit simultaneously, read-out: IC50)?
Its IC50 is 42.3 nM.

What about the V/F [5, 7] of the same compound?
Its V/F is 10.1992 L.

And the Kout ([5]; NCI-H441 PKPD model, %CV 7.43)?
The Kout was 2.39 h⁻¹.

What about the V/F ([5]; NCI-H441 PKPD model, %CV 14.60) of the same compound?
The V/F was 10.20 L.

And the Ka ([5]; NCI-H441 PKPD model, %CV 25.69)?
Its Ka is 0.65 h⁻¹.

What about the IC50 ([5]; NCI-H441 PKPD model, %CV 60.16, read-out: IC50 (DUSP6 indirect response model)) of the same compound?
Its IC50 is 42.3 nM.

And the Kpt [5, 10]?
Its Kpt is 115 h⁻¹.

And the Ktb [5, 10]?
Its Ktb is 0.1 h⁻¹.
